Measured values taken from ChEMBL document CHEMBL2163286, “1,2,3,4-tetrahydroquinoline-based selective human neuronal nitric oxide synthase (nNOS) inhibitors: lead optimization studies resulting in the identification of N-(1-(2-(methylamino)ethyl)-1,2,3,4-tetrahydroquinolin-6-yl)thiophene-2-carboximidamide as a preclinical development candidate” (J Med Chem, 2012).
pEC50, pIC50: −log10 of the molar value. One block for each molecule: values may come before it.

Key:
[1] = biological target: Nitric oxide synthase, inducible (Homo sapiens, UniProt P35228); experiment: Inhibition of human recombinant iNOS expressed in Sf9 cells assessed as reduction in conversion of [3H]L-arginine to [3H]L-citrulline preincubated for 15 mins by radiometric method
Sequence of Nitric oxide synthase, inducible (P35228 whole entry): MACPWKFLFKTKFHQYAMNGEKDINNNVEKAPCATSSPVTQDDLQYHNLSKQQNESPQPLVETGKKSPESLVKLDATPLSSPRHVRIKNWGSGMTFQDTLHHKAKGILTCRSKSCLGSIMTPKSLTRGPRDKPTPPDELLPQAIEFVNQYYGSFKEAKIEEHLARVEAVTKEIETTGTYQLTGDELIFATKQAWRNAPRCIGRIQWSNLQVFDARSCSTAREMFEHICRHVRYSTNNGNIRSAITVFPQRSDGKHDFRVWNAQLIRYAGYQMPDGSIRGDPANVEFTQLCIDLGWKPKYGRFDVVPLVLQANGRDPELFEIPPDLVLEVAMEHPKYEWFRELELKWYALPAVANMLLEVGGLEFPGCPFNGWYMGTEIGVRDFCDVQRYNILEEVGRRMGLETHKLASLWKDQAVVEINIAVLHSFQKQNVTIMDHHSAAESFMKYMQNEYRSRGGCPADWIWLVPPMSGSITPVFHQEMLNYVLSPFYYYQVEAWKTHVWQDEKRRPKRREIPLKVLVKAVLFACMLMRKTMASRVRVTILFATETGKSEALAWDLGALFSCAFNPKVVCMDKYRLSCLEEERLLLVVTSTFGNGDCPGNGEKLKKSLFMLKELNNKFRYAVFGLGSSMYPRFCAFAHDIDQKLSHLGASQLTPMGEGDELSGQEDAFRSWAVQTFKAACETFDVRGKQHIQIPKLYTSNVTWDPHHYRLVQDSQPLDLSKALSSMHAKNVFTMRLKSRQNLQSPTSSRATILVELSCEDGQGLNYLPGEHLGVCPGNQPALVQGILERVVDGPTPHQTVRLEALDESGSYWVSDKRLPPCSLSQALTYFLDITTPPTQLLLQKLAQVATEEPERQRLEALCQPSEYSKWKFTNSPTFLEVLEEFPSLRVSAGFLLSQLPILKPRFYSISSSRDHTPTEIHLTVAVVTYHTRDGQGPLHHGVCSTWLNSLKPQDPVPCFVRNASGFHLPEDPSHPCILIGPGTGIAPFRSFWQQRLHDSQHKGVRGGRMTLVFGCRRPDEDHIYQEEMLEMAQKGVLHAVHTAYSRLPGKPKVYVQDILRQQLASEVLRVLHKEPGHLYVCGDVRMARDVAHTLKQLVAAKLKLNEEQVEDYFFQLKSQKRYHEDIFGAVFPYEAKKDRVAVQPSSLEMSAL

[2] = biological target: Voltage-gated inwardly rectifying potassium channel KCNH2 (Homo sapiens, UniProt Q12809); experiment: Inhibition of human ERG expressed in HEK293 cells at -80 mV holding potential assessed as reduction in tail current amplitude by conventional patch clamp assay; type: cell-based
Sequence of Voltage-gated inwardly rectifying potassium channel KCNH2 (Q12809 whole entry): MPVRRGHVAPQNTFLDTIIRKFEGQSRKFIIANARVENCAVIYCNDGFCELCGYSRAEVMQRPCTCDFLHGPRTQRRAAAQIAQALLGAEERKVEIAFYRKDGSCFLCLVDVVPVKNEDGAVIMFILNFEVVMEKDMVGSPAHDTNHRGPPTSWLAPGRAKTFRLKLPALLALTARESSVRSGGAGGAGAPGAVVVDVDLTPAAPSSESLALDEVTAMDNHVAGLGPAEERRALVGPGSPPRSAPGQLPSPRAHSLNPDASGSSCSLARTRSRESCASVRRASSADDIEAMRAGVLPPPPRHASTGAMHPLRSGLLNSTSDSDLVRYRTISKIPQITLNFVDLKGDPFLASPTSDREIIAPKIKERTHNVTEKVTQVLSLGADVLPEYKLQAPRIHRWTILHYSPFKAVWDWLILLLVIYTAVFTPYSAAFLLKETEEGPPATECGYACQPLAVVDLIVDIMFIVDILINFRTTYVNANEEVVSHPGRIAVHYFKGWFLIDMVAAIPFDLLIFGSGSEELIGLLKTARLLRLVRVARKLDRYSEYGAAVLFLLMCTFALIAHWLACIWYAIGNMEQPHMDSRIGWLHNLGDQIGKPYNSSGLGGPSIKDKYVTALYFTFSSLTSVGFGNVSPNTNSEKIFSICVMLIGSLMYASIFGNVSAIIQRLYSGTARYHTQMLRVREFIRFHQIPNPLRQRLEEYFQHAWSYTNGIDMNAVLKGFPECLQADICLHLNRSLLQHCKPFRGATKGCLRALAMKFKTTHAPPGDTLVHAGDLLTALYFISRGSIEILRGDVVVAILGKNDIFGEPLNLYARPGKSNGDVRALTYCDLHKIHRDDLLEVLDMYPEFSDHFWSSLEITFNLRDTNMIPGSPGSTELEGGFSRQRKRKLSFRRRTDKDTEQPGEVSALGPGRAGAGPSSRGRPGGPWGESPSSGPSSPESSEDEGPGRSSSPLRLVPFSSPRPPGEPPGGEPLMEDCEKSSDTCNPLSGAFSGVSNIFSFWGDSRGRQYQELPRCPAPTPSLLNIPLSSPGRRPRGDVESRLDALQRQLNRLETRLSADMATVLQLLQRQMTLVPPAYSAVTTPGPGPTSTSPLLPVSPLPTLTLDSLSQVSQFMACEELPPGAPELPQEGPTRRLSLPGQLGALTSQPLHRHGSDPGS

[3] = biological target: T1, Muscarinic acetylcholine receptor M2 (Homo sapiens, UniProt P08172); experiment: Inhibition of human muscarinic M2 receptor by cell based functional assay
T1 sequence (P08172 whole entry): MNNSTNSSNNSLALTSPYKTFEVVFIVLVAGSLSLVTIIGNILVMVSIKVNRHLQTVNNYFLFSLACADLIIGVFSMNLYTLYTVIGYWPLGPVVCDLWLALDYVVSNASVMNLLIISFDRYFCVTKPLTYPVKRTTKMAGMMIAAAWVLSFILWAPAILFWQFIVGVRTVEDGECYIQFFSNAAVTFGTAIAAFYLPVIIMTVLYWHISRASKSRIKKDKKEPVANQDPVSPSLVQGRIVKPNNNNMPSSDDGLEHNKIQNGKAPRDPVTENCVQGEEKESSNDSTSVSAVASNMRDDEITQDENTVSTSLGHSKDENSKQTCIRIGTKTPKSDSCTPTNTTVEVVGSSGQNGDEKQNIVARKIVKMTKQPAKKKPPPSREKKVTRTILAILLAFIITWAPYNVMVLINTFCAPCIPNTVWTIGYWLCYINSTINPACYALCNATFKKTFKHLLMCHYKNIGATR

[4] = Tmax in rat at 3 mg/kg, iv or 10 mg/kg, po; type: ADME, organism-based; conditions: in vivo
[5] = AUC in rat at 3 mg/kg, iv or 10 mg/kg, po; type: ADME, organism-based; conditions: plasma
[6] = Cmax in rat at 3 mg/kg, iv or 10 mg/kg, po; type: ADME, organism-based; conditions: in vivo
[7] = biological target: Muscarinic acetylcholine receptor M3 (Homo sapiens, UniProt P20309); experiment: Inhibition of human muscarinic M3 receptor by cell based functional assay
Sequence of Muscarinic acetylcholine receptor M3 (P20309 whole entry): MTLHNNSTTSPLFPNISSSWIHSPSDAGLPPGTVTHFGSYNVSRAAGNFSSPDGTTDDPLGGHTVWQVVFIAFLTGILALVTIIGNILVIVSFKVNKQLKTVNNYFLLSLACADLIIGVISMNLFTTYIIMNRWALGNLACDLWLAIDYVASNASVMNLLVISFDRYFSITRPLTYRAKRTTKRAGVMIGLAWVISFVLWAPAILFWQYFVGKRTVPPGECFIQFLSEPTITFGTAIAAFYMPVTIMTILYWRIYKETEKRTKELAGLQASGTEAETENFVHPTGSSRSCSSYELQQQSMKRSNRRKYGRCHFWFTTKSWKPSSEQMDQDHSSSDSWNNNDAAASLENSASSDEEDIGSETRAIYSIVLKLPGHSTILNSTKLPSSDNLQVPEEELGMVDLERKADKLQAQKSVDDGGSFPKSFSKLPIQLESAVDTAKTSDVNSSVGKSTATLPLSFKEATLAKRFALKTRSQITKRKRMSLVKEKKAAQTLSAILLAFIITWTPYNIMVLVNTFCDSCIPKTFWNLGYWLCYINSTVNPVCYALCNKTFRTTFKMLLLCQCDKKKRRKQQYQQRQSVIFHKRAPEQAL

[8] = biological target: Cytochrome P450 2C9 (Homo sapiens, UniProt P11712); experiment: Inhibition of human CYP2C9; type: ADME
Sequence of Cytochrome P450 2C9 (P11712 whole entry): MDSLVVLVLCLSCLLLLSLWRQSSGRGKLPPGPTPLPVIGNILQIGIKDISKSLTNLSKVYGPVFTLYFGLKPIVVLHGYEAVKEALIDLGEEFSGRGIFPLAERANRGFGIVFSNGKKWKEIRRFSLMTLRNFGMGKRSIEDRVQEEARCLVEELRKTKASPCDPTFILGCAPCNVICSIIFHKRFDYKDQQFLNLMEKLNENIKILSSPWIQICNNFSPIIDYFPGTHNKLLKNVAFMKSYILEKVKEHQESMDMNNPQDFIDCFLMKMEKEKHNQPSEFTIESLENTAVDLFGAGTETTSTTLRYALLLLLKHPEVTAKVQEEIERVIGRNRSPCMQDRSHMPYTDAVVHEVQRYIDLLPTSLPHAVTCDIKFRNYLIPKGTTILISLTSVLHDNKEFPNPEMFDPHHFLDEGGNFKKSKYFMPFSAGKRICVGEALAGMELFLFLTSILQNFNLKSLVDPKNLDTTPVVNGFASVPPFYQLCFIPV

[9] = biological target: Cytochrome P450 2D6 (Homo sapiens, UniProt P10635); experiment: Inhibition of human CYP2D6; type: ADME
Sequence of Cytochrome P450 2D6 (P10635 whole entry): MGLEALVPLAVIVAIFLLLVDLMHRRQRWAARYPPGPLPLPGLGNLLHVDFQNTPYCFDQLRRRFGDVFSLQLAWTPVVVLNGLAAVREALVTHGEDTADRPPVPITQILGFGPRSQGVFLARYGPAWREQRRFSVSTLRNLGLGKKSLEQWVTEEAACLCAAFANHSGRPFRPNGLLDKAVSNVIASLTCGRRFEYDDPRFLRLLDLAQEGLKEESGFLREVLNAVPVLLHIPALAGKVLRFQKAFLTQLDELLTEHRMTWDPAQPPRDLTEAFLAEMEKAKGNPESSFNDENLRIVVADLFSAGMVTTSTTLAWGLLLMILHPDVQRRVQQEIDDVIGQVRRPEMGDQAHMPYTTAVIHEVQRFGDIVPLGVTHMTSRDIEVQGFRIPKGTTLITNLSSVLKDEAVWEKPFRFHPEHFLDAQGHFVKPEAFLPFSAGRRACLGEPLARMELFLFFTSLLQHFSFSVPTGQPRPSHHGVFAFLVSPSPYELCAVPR

[10] = biological target: Cytochrome P450 2C19 (Homo sapiens, UniProt P33261); experiment: Inhibition of human CYP2C19; type: ADME
Sequence of Cytochrome P450 2C19 (P33261 whole entry): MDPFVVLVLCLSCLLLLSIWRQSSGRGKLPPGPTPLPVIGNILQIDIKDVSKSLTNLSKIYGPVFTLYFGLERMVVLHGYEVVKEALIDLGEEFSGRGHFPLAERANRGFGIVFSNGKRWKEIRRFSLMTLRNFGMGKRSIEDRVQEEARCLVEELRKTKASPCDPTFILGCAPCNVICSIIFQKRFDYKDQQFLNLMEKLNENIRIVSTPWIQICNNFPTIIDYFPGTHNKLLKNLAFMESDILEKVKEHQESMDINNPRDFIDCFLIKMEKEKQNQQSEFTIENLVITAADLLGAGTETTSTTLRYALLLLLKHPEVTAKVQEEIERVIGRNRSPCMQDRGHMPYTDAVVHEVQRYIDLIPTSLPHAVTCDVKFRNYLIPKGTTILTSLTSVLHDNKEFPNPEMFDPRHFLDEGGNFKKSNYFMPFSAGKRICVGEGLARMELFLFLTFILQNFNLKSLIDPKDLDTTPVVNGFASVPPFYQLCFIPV

[11] = Oral bioavailability life in rat at 10 mg/kg; type: ADME, organism-based; conditions: in vivo
[12] = Plasma clearance in rat at 3 mg/kg, iv or 10 mg/kg, po; type: ADME, organism-based
[13] = biological target: T2, Adrenergic receptor alpha-2 (Rattus norvegicus, UniProt P22086+P19328+P22909); experiment: Inhibition of rat Alpha-2 adrenergic receptor by cell based functional assay
T2 sequence (P22086 whole entry): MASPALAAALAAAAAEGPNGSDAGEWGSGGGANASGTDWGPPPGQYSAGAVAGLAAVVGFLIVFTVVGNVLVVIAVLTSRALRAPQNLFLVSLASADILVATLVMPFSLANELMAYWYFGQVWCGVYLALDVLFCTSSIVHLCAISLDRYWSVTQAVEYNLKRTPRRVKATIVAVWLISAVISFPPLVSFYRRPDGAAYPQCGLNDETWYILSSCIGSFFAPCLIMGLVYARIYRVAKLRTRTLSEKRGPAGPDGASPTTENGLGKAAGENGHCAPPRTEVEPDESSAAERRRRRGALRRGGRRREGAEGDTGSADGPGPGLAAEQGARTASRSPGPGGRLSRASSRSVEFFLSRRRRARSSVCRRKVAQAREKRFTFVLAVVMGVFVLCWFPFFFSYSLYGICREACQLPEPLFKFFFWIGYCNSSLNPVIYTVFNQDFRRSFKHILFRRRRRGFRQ
T2 sequence (P19328 whole entry): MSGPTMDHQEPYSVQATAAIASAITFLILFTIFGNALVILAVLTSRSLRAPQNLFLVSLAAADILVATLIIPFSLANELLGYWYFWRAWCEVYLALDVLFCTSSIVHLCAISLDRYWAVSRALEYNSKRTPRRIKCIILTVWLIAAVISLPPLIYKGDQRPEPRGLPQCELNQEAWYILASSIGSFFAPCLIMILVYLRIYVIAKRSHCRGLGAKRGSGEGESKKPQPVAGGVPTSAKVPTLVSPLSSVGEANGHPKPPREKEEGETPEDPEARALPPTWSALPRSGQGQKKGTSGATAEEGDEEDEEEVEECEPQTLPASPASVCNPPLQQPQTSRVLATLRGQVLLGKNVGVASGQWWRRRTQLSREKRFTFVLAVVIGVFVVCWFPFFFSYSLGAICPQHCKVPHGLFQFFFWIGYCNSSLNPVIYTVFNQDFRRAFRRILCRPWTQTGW
T2 sequence (P22909 whole entry): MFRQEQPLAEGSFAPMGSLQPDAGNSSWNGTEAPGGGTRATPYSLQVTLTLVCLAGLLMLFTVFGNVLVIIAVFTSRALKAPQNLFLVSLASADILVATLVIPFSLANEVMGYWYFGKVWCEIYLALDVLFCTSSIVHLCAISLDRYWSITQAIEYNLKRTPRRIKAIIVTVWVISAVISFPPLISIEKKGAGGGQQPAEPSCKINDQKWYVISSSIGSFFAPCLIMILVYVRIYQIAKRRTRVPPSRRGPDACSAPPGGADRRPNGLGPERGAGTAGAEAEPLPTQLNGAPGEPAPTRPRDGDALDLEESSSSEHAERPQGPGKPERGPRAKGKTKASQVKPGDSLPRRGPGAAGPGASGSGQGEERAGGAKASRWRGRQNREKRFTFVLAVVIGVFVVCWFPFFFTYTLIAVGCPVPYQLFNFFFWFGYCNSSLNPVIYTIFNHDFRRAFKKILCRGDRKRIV

[14] = biological target: Cytochrome P450 3A4 (Homo sapiens, UniProt P08684); experiment: Inhibition of human CYP3A4; type: ADME
Sequence of Cytochrome P450 3A4 (P08684 whole entry): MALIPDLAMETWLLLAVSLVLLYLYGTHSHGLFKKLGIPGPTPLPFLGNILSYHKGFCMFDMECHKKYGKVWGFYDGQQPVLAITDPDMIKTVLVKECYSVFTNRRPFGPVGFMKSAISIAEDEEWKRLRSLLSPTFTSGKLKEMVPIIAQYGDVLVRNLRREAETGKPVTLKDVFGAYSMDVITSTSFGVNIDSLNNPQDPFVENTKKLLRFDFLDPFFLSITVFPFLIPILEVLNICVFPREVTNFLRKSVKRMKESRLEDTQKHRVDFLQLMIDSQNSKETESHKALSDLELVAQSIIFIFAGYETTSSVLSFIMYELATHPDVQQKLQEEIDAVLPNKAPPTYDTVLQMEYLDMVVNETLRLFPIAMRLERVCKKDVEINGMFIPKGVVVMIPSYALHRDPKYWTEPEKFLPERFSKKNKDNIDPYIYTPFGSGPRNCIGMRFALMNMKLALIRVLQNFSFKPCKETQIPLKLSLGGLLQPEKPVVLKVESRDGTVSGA

[15] = Half life in rat at 10 mg/kg, po; type: ADME, organism-based; design: dose 10 mg/kg, route oral; conditions: in vivo
[16] = biological target: T3, Muscarinic acetylcholine receptor M1 (Homo sapiens, UniProt P11229); experiment: Inhibition of human muscarinic M1 receptor by cell based functional assay
T3 sequence (P11229 whole entry): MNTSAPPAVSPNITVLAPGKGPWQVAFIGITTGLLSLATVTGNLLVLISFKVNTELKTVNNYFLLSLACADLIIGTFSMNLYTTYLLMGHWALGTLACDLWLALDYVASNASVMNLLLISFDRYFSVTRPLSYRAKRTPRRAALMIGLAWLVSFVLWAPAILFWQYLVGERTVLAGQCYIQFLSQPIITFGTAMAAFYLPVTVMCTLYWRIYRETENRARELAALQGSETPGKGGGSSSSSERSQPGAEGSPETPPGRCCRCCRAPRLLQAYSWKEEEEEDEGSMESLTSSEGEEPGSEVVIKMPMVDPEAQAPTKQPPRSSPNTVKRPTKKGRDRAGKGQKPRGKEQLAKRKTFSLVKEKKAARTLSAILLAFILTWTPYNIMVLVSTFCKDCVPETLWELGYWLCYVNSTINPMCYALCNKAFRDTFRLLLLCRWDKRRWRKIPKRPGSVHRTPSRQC

[17] = biological target: T4, Cytochrome P450 1A2 (Homo sapiens, UniProt P05177); experiment: Inhibition of human CYP1A2; type: ADME
T4 sequence (P05177 whole entry): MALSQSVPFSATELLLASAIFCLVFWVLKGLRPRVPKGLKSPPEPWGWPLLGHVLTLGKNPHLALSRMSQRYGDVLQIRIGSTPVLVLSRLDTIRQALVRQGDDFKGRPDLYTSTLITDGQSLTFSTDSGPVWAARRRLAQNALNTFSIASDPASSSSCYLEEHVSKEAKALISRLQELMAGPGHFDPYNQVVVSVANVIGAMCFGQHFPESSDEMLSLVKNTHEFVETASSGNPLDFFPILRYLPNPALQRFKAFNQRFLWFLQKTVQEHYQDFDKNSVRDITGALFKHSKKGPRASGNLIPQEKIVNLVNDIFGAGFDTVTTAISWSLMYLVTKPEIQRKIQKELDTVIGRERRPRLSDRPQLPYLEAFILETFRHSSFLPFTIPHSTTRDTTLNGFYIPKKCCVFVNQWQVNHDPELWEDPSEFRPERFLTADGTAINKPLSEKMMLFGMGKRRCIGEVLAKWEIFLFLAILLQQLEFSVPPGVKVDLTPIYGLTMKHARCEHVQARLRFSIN

[18] = biological target: T5, Muscarinic acetylcholine receptor M4 (Homo sapiens, UniProt P08173); experiment: Inhibition of human muscarinic M4 receptor by cell based functional assay
T5 sequence (P08173 whole entry): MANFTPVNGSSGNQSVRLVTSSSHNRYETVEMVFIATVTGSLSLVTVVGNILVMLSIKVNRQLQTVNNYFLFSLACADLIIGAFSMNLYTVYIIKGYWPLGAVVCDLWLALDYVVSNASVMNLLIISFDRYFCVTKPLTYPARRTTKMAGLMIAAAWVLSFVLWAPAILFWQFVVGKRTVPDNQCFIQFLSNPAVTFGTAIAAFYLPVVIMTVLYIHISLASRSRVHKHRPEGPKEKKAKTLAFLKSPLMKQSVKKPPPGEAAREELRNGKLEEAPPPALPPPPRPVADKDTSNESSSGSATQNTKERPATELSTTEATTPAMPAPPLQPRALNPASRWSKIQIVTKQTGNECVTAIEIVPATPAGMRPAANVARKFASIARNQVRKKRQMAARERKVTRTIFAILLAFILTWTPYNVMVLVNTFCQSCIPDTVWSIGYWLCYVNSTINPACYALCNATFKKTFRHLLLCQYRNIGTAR

[19] = Volume of distribution at steady state in rat at 3 mg/kg, iv or 10 mg/kg, po; type: ADME, organism-based; conditions: in vivo, read-out: Vdss
[20] = Plasma protein binding in human plasma; type: ADME, cell-free; conditions: read-out: PPB (converted)
[21] = biological target: Nitric oxide synthase 1 (Homo sapiens, UniProt P29475); experiment: Inhibition of human nNOS expressed in Sf9 cells assessed as reduction in conversion of [3H]L-arginine to [3H]L-citrulline preincubated for 15 mins by radiometric method

pIC50 [1]: < 4.00
SMILES: CNCCCN1CCCc2cc(NC(=N)c3cccs3)ccc21
pIC50 [2]: < 4.52

pEC50 [3]: < 4.40 | Tmax [4]: 2 h | AUC [5]: 1160 ng·h/mL | Cmax [6]: 880 nM | pEC50 [7]: < 4.40 | inhibition (INH) [8]: Not Active | inhibition (INH) [9]: Not Active | inhibition (INH) [10]: Not Active | bioavailability [11]: 59.9% | clearance [12]: 87.7 mL/min/kg | EC50 [13]: > 40 µM | inhibition (INH) [14]: Not Active | half-life [15]: 486 min | pEC50 [16]: < 4.40 | inhibition (INH) [17]: Not Active | pEC50 [18]: < 4.40 | Vd [19]: 83.9 L/kg | fraction unbound [20]: 0.6
SMILES: CNCCN1CCCc2cc(NC(=N)c3cccs3)ccc21

pIC50 [21]: 7.01 | pIC50 [1]: < 4.00
SMILES: CCN(C)CCN1CCCc2cc(NC(=N)c3cccs3)ccc21
pIC50 [2]: 5.35
